The text below walks through data of patent publication US20250257332A1, “TRUNCATED AND FUSION PROTEINS” (Monash University, priority 2021, published 2025).

Entries after “also recorded” stand apart in the source; their conditions may differ.

The subject of one assay is C2C12 myoblasts. Put plainly: C2C12 myoblast proliferation by EdU incorporation. Type of assay: cell-based, mouse. The conditions noted are these: for effect on NAMPT-induced increase in myoblast proliferation: co-administration with NAMPT. The protocol:
FIG. 2. […] In vitro assay assessing the effects of exogenously introduced factors on C2C12 myoblast proliferation. Proliferation is identified by EdU incorporation. […] Mean+S.D. Two-way ANOVA with Tukey's multiple comparison test. […] Mean±SEM
The mouse muscle cell line C2C12 (Yaffe, D. & Saxel, O. Serial passaging and differentiation of myogenic cells isolated from dystrophic mouse muscle. Nature 270, 725 (1977) were cultured in growth media (Dulbecco's Modified Eagle Medium (4.5 g/l D-Glucose, No L Glutamine, No Sodium Pyruvate (Gibco))+20% Fetal Bovine Solution-One Shot (Gibco)+1% Glut Max 100×(Gibco)). Cells were maintained at 37° C., 5% CO2. Cells at 70% confluence, passage 8 were extracted from T75 flasks with 0.025% Tryspin EDTA (Gibco), neutralised in growth media, spun at 180×g for 5 min to pellet cells. The cells were then resuspended in 10 ml of fresh growth media. 500 μl of cells were plated on a 8-well on cover glass II (Sarstedt) chamber slide at a density of 1×10^3 cells/ml. Cells were left 4 h at 37° C. to re-attach. For drug treatments, the media were supplemented with appropriate doses and cultured for 6 h.

Assay [1] concerns C2C12 murine myoblast cells. The experiment in a line: C2C12 cell proliferation, CyQuant Proliferation Assay kit. Type of assay: cell-based, mouse. The conditions noted are these: 20 nM, 48 hours, compared with full-length NAMPT. The protocol:
FIG. 7. Human NAMPT variants stimulate muscle progenitor proliferation. C2C12 mouse myoblasts were treated with 20 nM full length NAMPT (NAMPT) or NAMPT variants for (NAMPTxxx-xxx, where xxx are amino acid numbers) 48 hours. Quantification of cell proliferation was performed using CyQuant Proliferation Assay kit. […] Box and whiskers denote median with minimum and maximum values. n=4-5 independent experiments per protein. Statistical significance is indicated as exact p-value. […] Significance between conditions were analysed by one-way ANOVA with Tukey post-hoc test.
Human NAMPTcif (hNAMPTcif) and truncated variants of hNAMPTcif were designed by progressively removing N-terminal regions containing positively charged amino acids. Four truncations were produced and numbered T1 to T4. […] Quantification of proliferation was performed using commercially-available CyQuant Proliferation Assay kit (Thermo Fisher Scientific) according to manufacturer's instructions and read using a Synergy H1 plate reader (BioTek). […]
The heparin-binding sequence of placenta growth factor 2 (PIGF2) was fused to the N-terminus of NAMPTcif and produced using a bacterial expression system. […] Quantification of proliferation was performed using commercially-available CyQuant Proliferation Assay kit (Thermo Fisher Scientific) according to manufacturer's instructions and read using a Synergy H1 plate reader (BioTek). […]

For assay [2], the system named is Human primary endothelial cells derived from umbilical vein. Put plainly: Human primary endothelial cell proliferation, CyQuant. It counts as cell-based. Particulars: 20 nM; 48 hours. The protocol: FIG. 9. Human NAMPT variants stimulate human endothelial cell proliferation. Human primary endothelial cells derived from umbilical vein were treated with 20 nM full length NAMPT (NAMPT) or NAMPT variants (NAMPTxxx-xxx, where xxx are amino acid numbers) for 48 hours. Quantification of cell proliferation was performed using CyQuant Proliferation Assay kit. […] Treatment with 10% FBS was used as a positive control. Box and whiskers denote median with minimum and maximum values. n=6 independent experiments per protein. Statistical significance is indicated as p-value and determined by one-sample t-test.
Similarly, the inventors next investigated the activity of full length NAMPT, NAMPT402-491 and NAMPT422-491 on human endothelial cell proliferation. Human endothelial cells were derived from umbilical vein and treated with 20 nM full length NAMPT (NAMPT) or NAMPT variants for 48 hours.

Assay [3] deals with volumetric muscle loss injury of the rectus femoris muscle. The protocol:
Injury: male C57BL/6J mice aged between 10-12 weeks were anesthetised and shaved on the hind left leg. A unilateral incision measuring approximately 1 cm was made exposing the underlying fascia. The left hind limb was extended and exteriorised via the incision site by retracting the surrounding tissue. A 3×4 mm full thickness segment of the rectus femoris muscle was removed. Directly after, the injury site was filled with fibrin hydrogel with or without 200 ng or 500 ng of hrNAMPT (1) (hydrogel components; 40 μl, 8 mg/ml human fibrinogen (FIB3, Enzyme Research Laboratories), 4 U/ml bovine thrombin (T4648, Sigma), 5 mM CaCI2, 17 μg/ml of aprotinin (ab146286, Abcam)) which polymerized in the defect. Then, the soft tissue was closed with stitches.
Histology: 10 days after treatment, animals were sacrificed and the wounds were harvested for histological analysis. The defect site and associated proximal and distal segment of the quadriceps muscle (including the rectus femoris, vastus medialis and vastus lateralis) were excised and embedded. Histological analysis was performed on serial paraffin sections (4 μm sections collected passing the central portion of the wound). Multiple sections were stained with Masson's Trichrome (to detect collagen deposition) and the extent of fibrosis (represented by a blue stain) was measured by histomorphometric analysis using ImageJ software (version 1.51 h, National Institutes of Health, USA). To maintain uniformity between samples, the length of the vastus medialis taken at multiple depths ranging from 1.0 mm-3.0 mm serves as a reference between tissue sections to determine the depth of sectioning. For fibrotic quantification, average muscle fibrosis area at each depth was scored and normalised with the area of the rectus femoris. Total area of muscle is determined by calculating the average area of rectus femoris at each depth.
Immune cell profiling and PAX7+ cell quantification with flow cytometry: 4, 6 or 8 days after treatment with either 0.5 μg of hrNAMPT (1) delivered by fibrin hydrogel or control fibrin hydrogel only, mice were euthanised via CO2 asphyxiation. The defect site and associated proximal and distal segment of the quadricep muscles were isolated and placed into 890 μl of complete RPMI (with 10% FBS and 2 mM Glutamax, Life Technologies). The tissue was minced with surgical scissors and 100 μl of 10 mg/ml Collagenase II (Sigma-Aldrich) and 10 μl of 10 mg/ml DNAse I (Biolabs), while 100 μl of dispase II (10 mg/ml) was added into the digestion for PAX7 acquisition. The mixture was vortexed and incubated at 37° C. for 45 min. The collagenase was then inactivated with 500 μl ice-cold PBS, 5% FBS, 5 mM EDTA. The mixture was strained subsequently through 70 μm and 40 μm filters. The cell suspension was further diluted with 1 ml complete RPMI and centrifuged for 10 min at 300×g. The supernatant was discarded and the pellet was resuspended in 250 μl complete RPMI and aliquoted into wells of a 96-well U bottom plate for antibody staining. The cell solutions were centrifuged, supernatant discarded, and washed with PBS. The cell viability stain used was 100 μl of Zombie Aqua (Biolegend) Live-Dead dye diluted in PBS (1:400 dilution) and incubated for 30 min at 4° C. The cells were then blocked with FcX (anti-CD16/32 antibodies, Biolegend, 1 μg/ml) flow cytometry buffer (PBS, 5% FBS). The cells were kept for 20 min at 4° C., washed with flow cytometry buffer and centrifuged. […] For internal Foxp3 staining in the T cell panel, cells were fixed with 100 μl fixation/permeabilisation solution (42080, Biolegend) for 35 min. Then cells were washed and resuspended in 100 μl of flow cytometry buffer with 0.5% Saponin and 5 μg/ml anti-Foxp3 (clone 3G3, #35-5773-U100) for 45 min. Cells were then resuspended in flow cytometry buffer (100 μl) and acquired on the Fortessa x20 (Beckman Coulter). […] Cells were stained for 45 min on ice and washed as described above.

For another assay, the target named is T1, TLR4 (Homo sapiens, UniProt O00206).
T1 construct: host or cells: HEK-Blue TLR4 reporter cell line
T1 sequence (O00206 24-839): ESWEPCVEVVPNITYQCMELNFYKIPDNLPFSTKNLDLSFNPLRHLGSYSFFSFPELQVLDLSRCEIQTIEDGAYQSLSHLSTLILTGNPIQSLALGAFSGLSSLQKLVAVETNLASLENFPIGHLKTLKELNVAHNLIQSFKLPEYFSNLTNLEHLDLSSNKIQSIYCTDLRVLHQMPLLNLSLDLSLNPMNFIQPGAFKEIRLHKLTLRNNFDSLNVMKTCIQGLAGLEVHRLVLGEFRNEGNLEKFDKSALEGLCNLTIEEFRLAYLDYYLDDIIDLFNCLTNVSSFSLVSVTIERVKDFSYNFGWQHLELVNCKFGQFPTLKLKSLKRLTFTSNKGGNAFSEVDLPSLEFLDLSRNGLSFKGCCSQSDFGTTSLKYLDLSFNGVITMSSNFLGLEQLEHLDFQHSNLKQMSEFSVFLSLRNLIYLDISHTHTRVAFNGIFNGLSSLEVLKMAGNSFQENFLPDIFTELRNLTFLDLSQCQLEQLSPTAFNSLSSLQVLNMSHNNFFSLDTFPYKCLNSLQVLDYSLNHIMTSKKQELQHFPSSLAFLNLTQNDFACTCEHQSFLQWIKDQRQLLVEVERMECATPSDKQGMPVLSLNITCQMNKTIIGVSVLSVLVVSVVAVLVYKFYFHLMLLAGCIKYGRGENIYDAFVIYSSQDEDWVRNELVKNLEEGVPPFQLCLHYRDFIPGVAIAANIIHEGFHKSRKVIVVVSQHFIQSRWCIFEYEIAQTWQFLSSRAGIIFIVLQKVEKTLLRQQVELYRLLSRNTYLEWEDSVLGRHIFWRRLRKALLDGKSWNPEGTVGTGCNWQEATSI
T1 sequence (Q9Y6Y9 17-160 partner limits assumed): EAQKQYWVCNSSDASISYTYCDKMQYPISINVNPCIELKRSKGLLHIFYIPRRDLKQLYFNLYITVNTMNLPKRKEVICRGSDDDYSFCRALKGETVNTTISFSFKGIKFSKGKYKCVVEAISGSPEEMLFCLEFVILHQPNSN
The experiment in a line: TLR4 signalling assay in HEK-Blue TLR4 reporter cells. Type of assay: cell-based. Particulars: 19 nM; 24 hours; plus 5 ug/ml polymyxin B. The protocol: TLR4 receptor activation was assayed using the HEK-Blue TLR4 reporter cell line (InvivoGen). In this cell line, TLR4 and downstream NFκB signalling induces expression and secretion of alkaline phosphatase that can be quantified via colorimetric assay. HEK-Blue cells were treated for 24 hours with 19 nM of NAMPTcif or PIGF-NAMPTcif plus 5 ug/ml polymyxin B to ensure no TLR4 activation by any trace amounts of endotoxin. TLR4 activity was reported as the equivalent amount of activation by bacterial lipopolysaccharides (LPS), thus a standard curve was generated by serial dilutions of LPS from 0.01 to 20 ng/ml. Detection of alkaline phosphatase activity was performed using a QUANTI-Blue kit (InvivoGen) according to manufacturer's instructions and plates were read using a Synergy H1 plate reader (BioTek). Data were presented as equivalent LPS concentration in ng/ml. A one-way ANOVA with Dunnett's multiple comparisons test was performed to determine statistical significance.

Where [4] appears, read: fibrin hydrogel delivery, 10 days post treatment.
[5] abbreviates: single dose 0.5 μg in fibrin hydrogel at the point of injury, 10 days post treatment, vs fibrin only.

In the case of `N#CN=C(NCCCCCCOc1ccc(Cl)cc1)Nc1ccncc1` [GMX1778], the “effect on NAMPT-induced increase in myoblast proliferation” value (“effect on NAMPT-induced increase” below) in the assay on C2C12 myoblasts (EdU incorporation) is recorded as “does not impact its effect on myoblast proliferation; also recorded: did not affect the increased myoblast proliferation”. Besides, the “effect on basal level of C2C12 proliferation” value with C2C12 myoblasts (drug alone, EdU incorporation) was “no negative effect on the basal level of C2C12 proliferation”.
Take `O=C(NCC(=O)N1CC[C@H](N[C@H]2CC[C@@](O)(c3ccc(-c4ncccn4)cn3)CC2)C1)c1cccc(C(F)(F)F)c1` [PF-4136309]: the “effect on NAMPT-induced increase” value in the assay with C2C12 myoblasts (EdU incorporation) is “does not hinder NAMPT's stimulatory effect on myoblast proliferation”.
On the same count and under the same terms, to `CCCCOCCOc1ccc(-c2ccc3c(c2)/C=C(/C(=O)Nc2ccc([S@@+]([O-])Cc4cncn4CCC)cc2)CCCN3CC(C)C)cc1` [cenicriviroc] belongs “abolishes NAMPT's pro-proliferative response; also recorded: proliferative response was blocked”.
For CCL2/MCP-1: CCR2 ligand, the “myoblast proliferation (EdU incorporation), factor alone” value in the assay with C2C12 myoblasts (exogenously added factor vs control, listed as mrCCL2) is reported as “failed to increase proliferative rates beyond that of the control”.
For “NAMPT422-471: Truncated hNAMPTcif, residues 422-471 of full length NAMPT, SEQ ID NO: 33 (His-tagged: SEQ ID NO: 34) (NKRSKKGRLSLHRTPAGNFVTLEEGKGDLEEYGQDLLHTVFKNGKVTKS)”, the “cell proliferation, percentage increase vs PBS-treated control” value in assay [1] was “lower cellular proliferation of muscle progenitor cells compared to full-length NAMPT and the other NAMPT variants”.
On to “NAMPT436-491: Truncated hNAMPTcif, residues 436-491 of full length NAMPT, SEQ ID NO: 10 (His-tagged: SEQ ID NO: 11) (PAGNFVTLEEGKGDLEEYGQDLLHTVFKNGKVTKSYSFDEIRKNAQLNIELEAAHH)”, for which the “cell proliferation, percentage increase vs PBS-treated control” value in assay [1] was “lower cellular proliferation of muscle progenitor cells compared to full-length NAMPT and the other NAMPT variants”.
Regarding “Nicotinamide phosphoribosyltransferase [NAMPT]”, the “endothelial cell proliferation, percentage increase vs PBS-treated control” value in assay [2] is “still stimulated endothelial cell proliferation above negative control”. For the same molecule, the “number of centrally nucleated de novo muscle fibres” value in assay [3] (0.5 μg in fibrin, 6 days post treatment, vs fibrin only) is reported as “significant increase”. For the same molecule, the “restoration of muscle architecture” value in assay [3] (delivered into the muscle defect via fibrin hydrogel, vs fibrin only control hydrogel) is recorded as “fully restore muscle architecture”. Besides, in assay [3] (setting [4]), the “fibrotic tissue (Masson's trichrome)” value is given as “significant reduction in fibrotic tissue” and the “regenerated muscle area (Masson's trichrome)” value is given as “significantly increased the regenerated muscle area”. Further, in assay [3] (setting [5]), the “decrease in average fibrotic area” value came out at 34.76±9.32% and the “increase in average muscle area” value turned out to be 3.276±0.4926 mm^2. Besides, at TLR4, the “TLR4 activation (equivalent LPS concentration)” value is recorded as “activates TLR4”.
maraviroc: in the assay on C2C12 myoblasts (EdU incorporation), the “effect on NAMPT-induced increase” value was “abolishes NAMPT's pro-proliferative response; also recorded: proliferative response was blocked”.
